Laboratory results taken from PubChem BioAssay (NCI).
Where “and” joins values, the source holds several entries; their conditions need not be identical. Equal values may be shown once.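 Each compound was tested at five concentrations against cells in 96-well plates for 48 hours. The concentration for 50% growth inhibition is given as GI50. At the TGI there is no net growth.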

What was measured:
Experiment in all cases: NCI-60 cell line screen, 48 h
MALME-3M melanoma = system: MALME-3M melanoma
M14 melanoma = system: M14 melanoma
RPMI-8226 leukemia = system: RPMI-8226 leukemia
NCI/ADR-RES ovarian = system: NCI/ADR-RES ovarian
MDA-MB-231 breast = system: MDA-MB-231 breast
HCT-15 colon = system: HCT-15 colon

O=C1C(=O)c2cc([N+](=O)[O-])ccc2-c2ccccc21
GI50 (MALME-3M melanoma): 1.77 µM
TGI (MALME-3M melanoma): 3.4 µM
GI50 (M14 melanoma): 1.97 µM
TGI (M14 melanoma): 3.5 µM
GI50 (RPMI-8226 leukemia): 2.21 µM
TGI (RPMI-8226 leukemia): 4.7 µM
GI50 (NCI/ADR-RES ovarian): 1.66 µM
TGI (NCI/ADR-RES ovarian): 3.33 µM
GI50 (MDA-MB-231 breast): 1.64 µM
TGI (MDA-MB-231 breast): 3.15 µM
GI50 (HCT-15 colon): 1.8 µM
TGI (HCT-15 colon): 3.59 µM

CNC(=O)c1ccc(Nc2ncc(C(F)(F)F)c(NCc3nccnc3N(C)S(C)(=O)=O)n2)cc1
GI50 (MALME-3M melanoma): 4.1 µM and 2.98 µM and 3.71 µM
TGI (MALME-3M melanoma): > 10 µM and 13.3 µM and 12.7 µM
GI50 (M14 melanoma): 2 µM and 2.27 µM and 1.98 µM
TGI (M14 melanoma): > 10 µM and 11.6 µM and 19 µM
GI50 (RPMI-8226 leukemia): 2.59 µM and 2.95 µM and 2.27 µM
TGI (RPMI-8226 leukemia): 6.9 µM and 8.16 µM and 7.58 µM
GI50 (NCI/ADR-RES ovarian): 8.27 µM and 8.53 µM
TGI (NCI/ADR-RES ovarian): > 10 µM and 25.9 µM and 27.1 µM
GI50 (MDA-MB-231 breast): 2.55 µM and 3.12 µM and 2.6 µM
TGI (MDA-MB-231 breast): > 10 µM and 11.9 µM
GI50 (HCT-15 colon): 2.92 µM and 2.65 µM and 2.57 µM
TGI (HCT-15 colon): > 10 µM and 11.3 µM and 12.6 µM

COc1ccc(C(=O)/C=C/c2cc3ccccc3[nH]c2=O)cc1
GI50 (MALME-3M melanoma): 40.8 µM
TGI (MALME-3M melanoma): > 100 µM
GI50 (M14 melanoma): 19.3 µM
TGI (M14 melanoma): 47.2 µM
GI50 (RPMI-8226 leukemia): 18.4 µM
TGI (RPMI-8226 leukemia): > 100 µM
GI50 (NCI/ADR-RES ovarian): 18.9 µM
TGI (NCI/ADR-RES ovarian): 42.9 µM
GI50 (MDA-MB-231 breast): 22.3 µM
TGI (MDA-MB-231 breast): > 56.4 µM
GI50 (HCT-15 colon): 20.3 µM
TGI (HCT-15 colon): > 59.6 µM

CC[C@H](C)c1occ2c(O)c(C(=O)O)c(=O)cc-2c1C
TGI (MALME-3M melanoma): 37.7 µM
TGI (M14 melanoma): > 100 µM
TGI (RPMI-8226 leukemia): 90.8 µM
TGI (NCI/ADR-RES ovarian): 50.4 µM
TGI (MDA-MB-231 breast): 50.6 µM
TGI (HCT-15 colon): 32.1 µM

CCCCCCN(CCCCCC)C(=N)c1ccnc2ccccc12
GI50 (MALME-3M melanoma): 2.25 µM
TGI (MALME-3M melanoma): 5.64 µM
GI50 (M14 melanoma): 1.89 µM
TGI (M14 melanoma): 4.56 µM
GI50 (RPMI-8226 leukemia): 2.93 µM
TGI (RPMI-8226 leukemia): 11.6 µM
GI50 (NCI/ADR-RES ovarian): 5.84 µM
TGI (NCI/ADR-RES ovarian): 21.1 µM
GI50 (MDA-MB-231 breast): 5.13 µM
TGI (MDA-MB-231 breast): 21.3 µM
GI50 (HCT-15 colon): 3.82 µM
TGI (HCT-15 colon): 16.6 µM

COc1ccc(C(=S)c2cc(OC)c(OC)c(OC)c2)cc1OC(=O)CCl
GI50 (MALME-3M melanoma): 0.58 µM
TGI (MALME-3M melanoma): > 76.6 µM
GI50 (M14 melanoma): < 0.0125 µM
TGI (M14 melanoma): > 49.6 µM
GI50 (RPMI-8226 leukemia): < 0.0196 µM
TGI (RPMI-8226 leukemia): 25.2 µM
GI50 (NCI/ADR-RES ovarian): < 0.0127 µM
TGI (NCI/ADR-RES ovarian): > 100 µM
GI50 (MDA-MB-231 breast): 0.0253 µM
GI50 (HCT-15 colon): < 0.01 µM
TGI (HCT-15 colon): > 100 µM

Cc1cc(NC(=O)c2ccc(NS(=O)(=O)CCO)cc2N2CCC3(CC2)CC3)nc(N2CCC(F)(F)CC2)n1
GI50 (MALME-3M melanoma): 13.9 µM
TGI (MALME-3M melanoma): 27.8 µM
GI50 (M14 melanoma): 14.3 µM
TGI (M14 melanoma): 28.9 µM
GI50 (RPMI-8226 leukemia): 9.74 µM
TGI (RPMI-8226 leukemia): 33.4 µM
GI50 (NCI/ADR-RES ovarian): 0.428 µM
TGI (NCI/ADR-RES ovarian): 16.1 µM
GI50 (MDA-MB-231 breast): 0.188 µM
TGI (MDA-MB-231 breast): 17.6 µM
GI50 (HCT-15 colon): 4.71 µM
TGI (HCT-15 colon): 20.5 µM

CS(=O)(=O)c1ccc(N/N=C/c2c(-c3ccc(S(C)(=O)=O)cc3)[nH]c3ccc(F)cc23)cc1
GI50 (MALME-3M melanoma): 1.34 µM
TGI (MALME-3M melanoma): 4.38 µM
GI50 (M14 melanoma): 2.16 µM
TGI (M14 melanoma): > 50 µM
GI50 (RPMI-8226 leukemia): 1.15 µM
TGI (RPMI-8226 leukemia): 2.9 µM
GI50 (NCI/ADR-RES ovarian): > 50 µM
TGI (NCI/ADR-RES ovarian): > 50 µM
GI50 (MDA-MB-231 breast): 1.69 µM
TGI (MDA-MB-231 breast): > 50 µM
GI50 (HCT-15 colon): 18.1 µM
TGI (HCT-15 colon): > 50 µM

Cc1cc(Cl)ccc1Nc1sc(C(=O)c2cc3cc(Cl)ccc3o2)c(N)c1C#N
TGI (MALME-3M melanoma): > 100 µM
TGI (M14 melanoma): > 100 µM
TGI (RPMI-8226 leukemia): > 62.4 µM
TGI (NCI/ADR-RES ovarian): > 23.5 µM
TGI (MDA-MB-231 breast): > 55 µM
TGI (HCT-15 colon): > 100 µM

[N-]=[N+]=NC1(N=[N+]=[N-])C(=O)NN=C(c2ccccc2)C1=O (stereo unspecified)
TGI (MALME-3M melanoma): > 100 µM
TGI (M14 melanoma): > 100 µM
TGI (RPMI-8226 leukemia): > 100 µM
TGI (NCI/ADR-RES ovarian): > 100 µM
TGI (MDA-MB-231 breast): > 100 µM
TGI (HCT-15 colon): > 100 µM

C#C[C@@]1(O)[C@@H](CO)O[C@@H](n2cc(Cl)c3c(N)ncnc32)[C@@H]1O
GI50 (MALME-3M melanoma): 0.241 µM
TGI (MALME-3M melanoma): 3.18 µM
GI50 (M14 melanoma): 0.177 µM
TGI (M14 melanoma): 0.585 µM
GI50 (RPMI-8226 leukemia): 0.151 µM
TGI (RPMI-8226 leukemia): 0.607 µM
GI50 (NCI/ADR-RES ovarian): 0.0546 µM
TGI (NCI/ADR-RES ovarian): 0.777 µM
GI50 (MDA-MB-231 breast): 0.169 µM
TGI (MDA-MB-231 breast): 0.951 µM
GI50 (HCT-15 colon): 0.143 µM
TGI (HCT-15 colon): > 100 µM

CCN(Cc1ccc(F)cc1)c1ccc(CO)c(Cl)c1
GI50 (MALME-3M melanoma): 15 µM
TGI (MALME-3M melanoma): 35.9 µM
GI50 (M14 melanoma): 12.5 µM
TGI (M14 melanoma): > 51.8 µM
GI50 (RPMI-8226 leukemia): 3.68 µM
TGI (RPMI-8226 leukemia): 36.3 µM
GI50 (NCI/ADR-RES ovarian): 11.6 µM
TGI (NCI/ADR-RES ovarian): 34.4 µM
GI50 (MDA-MB-231 breast): 15.6 µM
TGI (MDA-MB-231 breast): 51.5 µM
GI50 (HCT-15 colon): 5.15 µM
TGI (HCT-15 colon): 50.7 µM

O=S(=O)(/C=C/C=C/S(=O)(=O)c1ccccc1)c1ccccc1
GI50 (MALME-3M melanoma): 1.54 µM
TGI (MALME-3M melanoma): 2.8 µM and 3.01 µM
GI50 (M14 melanoma): 0.801 µM
TGI (M14 melanoma): 1.12 µM and 2.06 µM
TGI (RPMI-8226 leukemia): 1.66 µM
GI50 (NCI/ADR-RES ovarian): 2.16 µM
TGI (NCI/ADR-RES ovarian): 3.89 µM and 4.68 µM
GI50 (MDA-MB-231 breast): 1.87 µM
TGI (MDA-MB-231 breast): 3.37 µM and 3.73 µM
GI50 (HCT-15 colon): 0.189 µM
TGI (HCT-15 colon): 2.7 µM and 0.795 µM

COc1ccc(NC(=O)C(=O)C(CC2C(=O)NC(=S)NC2=O)C(=O)c2ccc3ccccc3c2)c([N+](=O)[O-])c1 (stereo unspecified)
TGI (M14 melanoma): > 100 µM
TGI (RPMI-8226 leukemia): > 100 µM
TGI (NCI/ADR-RES ovarian): > 100 µM
TGI (MDA-MB-231 breast): > 100 µM
TGI (HCT-15 colon): > 100 µM
